# Test system: cTK activity in plasma from a CML patient harboring the T315I mutation
# Test: Ex vivo plasma cTK activity assay, plasma from a multidrug-resistant CML patient with T315I mutation
# Format: biochemical, human
# Conditions: 1-5 μM imatinib (FIG. 2A)
# Procedure: After incubation at 37° C. for 30 min, the PY20-HRP solution was replaced by HRP substrate solution (TMBZ).
smiles,measurement,value
"Cc1ccc(NC(=O)c2ccc(CN3CCN(C)CC3)cc2)cc1Nc1nccc(-c2cccnc2)n1 [Imatinib, imatinib]",Inhibition of cTK activity,little inhibition

# Reference: patent US10655161B2, “Diagnostic and prognostic assays based on circulating tyrosine kinase activity” (Quest Diagnostics Investments Incorporated, priority 2010, dated 2020)
